Results from ChEMBL document CHEMBL1201862, “PubChem BioAssay data set” (2004).
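96-well plates; 48 h exposure; 5 concentrations. Endpoints by linear interpolation between flanking doses. Not reached: highest tested concentration assigned. Abbreviation: GI50, concentration required for 50% inhibition of growth.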 Calls of active or inactive are those of the source. Rule as the data show it: active = GI50 up to about 1.1 µM and inactive = higher.

Legend:
Assay in all cases: NCI-60 cell line screen, 48 h
SF-295 = tested on: SF-295
LOX IMVI = tested on: LOX IMVI
SF-268 = tested on: SF-268
OVCAR-3 = tested on: OVCAR-3
SK-MEL-2 = tested on: SK-MEL-2
DU-145 = tested on: DU-145
Hs-578T = tested on: Hs-578T
UACC-62 = tested on: UACC-62
SN12C = tested on: SN12C
NCI-H226 = tested on: NCI-H226
Malme-3M = tested on: Malme-3M
NCI-H23 = tested on: NCI-H23
CCRF-CEM = tested on: CCRF-CEM
RPMI-8226 = tested on: RPMI-8226
786-0 = tested on: 786-0
HCT-116 = tested on: HCT-116
HOP-62 = tested on: HOP-62
A549 = tested on: A549
SR = tested on: SR

Compound: CCCCCCCC/C=C\CCCCCCCCNc1ccn(C2OC(COP(=O)(O)OC3CC(n4cc(F)c(=O)[nH]c4=O)OC3CO)C(O)C2O)c(=O)n1 (stereo not drawn)
- GI50 (SF-295): 0.638 µM (active)
- GI50 (LOX IMVI): 0.122 µM (active)
- GI50 (SF-268): < 0.0292 µM (active)
- GI50 (OVCAR-3): > 87.5 µM (inactive)
- GI50 (SK-MEL-2): > 100 µM (inactive)
- GI50 (DU-145): 0.159 µM (active)
- GI50 (Hs-578T): > 100 µM (inactive)
- GI50 (UACC-62): 0.223 µM (active)
- GI50 (SN12C): > 100 µM (inactive)
- GI50 (NCI-H226): > 28.4 µM (inactive)
- GI50 (Malme-3M): 13.2 µM (inactive)
- GI50 (NCI-H23): 0.433 µM (active)
- GI50 (CCRF-CEM): < 0.0215 µM (active)
- GI50 (RPMI-8226): 0.0509 µM (active)
- GI50 (786-0): 0.195 µM (active)
- GI50 (HCT-116): 0.329 µM (active)
- GI50 (HOP-62): < 0.0255 µM (active)
- GI50 (A549): < 0.0194 µM (active)
- GI50 (SR): 0.0159 µM (active)

Compound: Cc1ccc(S(=O)(=O)NC(=O)NC(Cc2ccccc2)C(=O)O)cc1 (stereo not drawn)
- GI50 (SF-295): > 100 µM (inactive)
- GI50 (LOX IMVI): > 100 µM (inactive)
- GI50 (SF-268): > 100 µM (inactive)
- GI50 (SK-MEL-2): > 100 µM (inactive)
- GI50 (DU-145): > 100 µM (inactive)
- GI50 (Hs-578T): > 100 µM (inactive)
- GI50 (UACC-62): > 100 µM (inactive)
- GI50 (SN12C): > 100 µM (inactive)
- GI50 (Malme-3M): > 100 µM (inactive)
- GI50 (NCI-H23): > 100 µM (inactive)
- GI50 (CCRF-CEM): > 100 µM (inactive)
- GI50 (RPMI-8226): > 100 µM (inactive)
- GI50 (786-0): > 100 µM (inactive)
- GI50 (HCT-116): > 100 µM (inactive)
- GI50 (HOP-62): > 100 µM (inactive)
- GI50 (A549): > 100 µM (inactive)
- GI50 (SR): > 100 µM (inactive)

Compound: CC1CC(Nc2ccc(Br)cc2)N(C(=O)c2ccc(Br)cc2)O1 (stereo not drawn)
- GI50 (SF-295): 2.42 µM (inactive)
- GI50 (SF-268): 1.25 µM (inactive)
- GI50 (OVCAR-3): > 10 µM (inactive)
- GI50 (SK-MEL-2): > 10 µM (inactive)
- GI50 (DU-145): 2.62 µM (inactive)
- GI50 (Hs-578T): 8.3 µM (inactive)
- GI50 (SN12C): 2.75 µM (inactive)
- GI50 (NCI-H226): > 10 µM (inactive)
- GI50 (Malme-3M): 6.84 µM (inactive)
- GI50 (NCI-H23): > 10 µM (inactive)
- GI50 (CCRF-CEM): 2.51 µM (inactive)
- GI50 (RPMI-8226): 4.78 µM (inactive)
- GI50 (786-0): > 10 µM (inactive)
- GI50 (HCT-116): 4.42 µM (inactive)
- GI50 (HOP-62): 6.49 µM (inactive)
- GI50 (A549): 3.97 µM (inactive)
- GI50 (SR): 2.19 µM (inactive)

Compound: Clc1ncc(C(Cl)(Cl)Cl)nc1-c1ccccc1
- GI50 (SF-295): 3.63 µM (inactive)
- GI50 (LOX IMVI): 4.13 µM (inactive)
- GI50 (SF-268): 2.19 µM (inactive)
- GI50 (OVCAR-3): 1.72 µM (inactive)
- GI50 (SK-MEL-2): 2.27 µM (inactive)
- GI50 (DU-145): 1.61 µM (inactive)
- GI50 (Hs-578T): 2.82 µM (inactive)
- GI50 (UACC-62): 2.56 µM (inactive)
- GI50 (SN12C): 2.86 µM (inactive)
- GI50 (NCI-H226): 18.4 µM (inactive)
- GI50 (Malme-3M): 5.14 µM (inactive)
- GI50 (NCI-H23): 2.24 µM (inactive)
- GI50 (CCRF-CEM): 14.6 µM (inactive)
- GI50 (RPMI-8226): 0.598 µM (active)
- GI50 (786-0): 1.95 µM (inactive)
- GI50 (HCT-116): 1.87 µM (inactive)
- GI50 (HOP-62): 2.26 µM (inactive)
- GI50 (A549): 6.46 µM (inactive)
- GI50 (SR): 3.85 µM (inactive)

Compound: O=C(CNS(=O)(=O)Cc1ccccc1)NNc1ccccc1
- GI50 (SF-295): 4.02 µM (inactive)
- GI50 (LOX IMVI): 1.85 µM (inactive)
- GI50 (SF-268): > 100 µM (inactive)
- GI50 (OVCAR-3): 49.4 µM (inactive)
- GI50 (SK-MEL-2): > 30 µM (inactive)
- GI50 (DU-145): > 100 µM (inactive)
- GI50 (Hs-578T): > 100 µM (inactive)
- GI50 (UACC-62): 1.12 µM (active)
- GI50 (SN12C): > 100 µM (inactive)
- GI50 (NCI-H226): > 100 µM (inactive)
- GI50 (Malme-3M): > 100 µM (inactive)
- GI50 (NCI-H23): > 100 µM (inactive)
- GI50 (CCRF-CEM): > 100 µM (inactive)
- GI50 (RPMI-8226): 18.4 µM (inactive)
- GI50 (786-0): > 100 µM (inactive)
- GI50 (HCT-116): > 100 µM (inactive)
- GI50 (HOP-62): > 100 µM (inactive)
- GI50 (A549): > 100 µM (inactive)
- GI50 (SR): > 100 µM (inactive)

Compound: N#Cc1nc(CCc2nc(C#N)c(N)o2)oc1N
- GI50 (SF-295): > 10 µM (inactive)
- GI50 (LOX IMVI): > 10 µM (inactive)
- GI50 (SF-268): > 10 µM (inactive)
- GI50 (DU-145): > 10 µM (inactive)
- GI50 (Hs-578T): > 10 µM (inactive)
- GI50 (UACC-62): > 10 µM (inactive)
- GI50 (SN12C): > 10 µM (inactive)
- GI50 (NCI-H226): > 10 µM (inactive)
- GI50 (Malme-3M): > 10 µM (inactive)
- GI50 (NCI-H23): > 10 µM (inactive)
- GI50 (CCRF-CEM): > 10 µM (inactive)
- GI50 (RPMI-8226): > 10 µM (inactive)
- GI50 (786-0): > 10 µM (inactive)
- GI50 (HCT-116): > 10 µM (inactive)
- GI50 (HOP-62): > 10 µM (inactive)
- GI50 (A549): > 10 µM (inactive)
- GI50 (SR): > 10 µM (inactive)
